Reference: patent US7754767B2, “Method for treatment of premature ejaculation in humans” (Trinity Laboratories, Inc., priority 2002, dated 2010)
Where “and” joins values, the source holds several entries; their conditions need not be identical. Identical values can stand only once.

Assays:
cyclooxygenase-2 (COX-2) = cyclooxygenase-2 (COX-2) (Homo sapiens, UniProt P35354); settings: cited from earlier work
[1] = Plasma concentrations of DM after oral DM with or without quinidine (HPLC); assay type: in vivo, human; settings: blood sampled 10-12 hours later, per volunteer
Experimental: Five patients with a symptom of having premature ejaculation were orally administered 120 mg of DM, with no co-administration of quinidine. Between 10 and 12 hours later, blood was sampled, blood plasma was isolated by centrifugation, and the plasma was analyzed to determine the DM concentration using the HPLC method. During a different week, the same patients were orally administered 60 mg of DM (half the control dosage) and 150 mg of quinidine. Between 10 and 12 hours later, blood was sampled and the plasma was analyzed for DM using thebaine/HPLC. The results, in Table 1, indicate that quinidine causes a major increase in the concentration of DM in the blood plasma.

[2] = target: phosphodiesterase type 5 (PDE5) (Homo sapiens, UniProt O76074); settings: in vitro; PDE5 vs PDE6; cited from earlier work
[3] = oral administration, Viagra formulation; cited from earlier work

Sequence of cyclooxygenase-2 (COX-2) (P35354 18-604, species assumed): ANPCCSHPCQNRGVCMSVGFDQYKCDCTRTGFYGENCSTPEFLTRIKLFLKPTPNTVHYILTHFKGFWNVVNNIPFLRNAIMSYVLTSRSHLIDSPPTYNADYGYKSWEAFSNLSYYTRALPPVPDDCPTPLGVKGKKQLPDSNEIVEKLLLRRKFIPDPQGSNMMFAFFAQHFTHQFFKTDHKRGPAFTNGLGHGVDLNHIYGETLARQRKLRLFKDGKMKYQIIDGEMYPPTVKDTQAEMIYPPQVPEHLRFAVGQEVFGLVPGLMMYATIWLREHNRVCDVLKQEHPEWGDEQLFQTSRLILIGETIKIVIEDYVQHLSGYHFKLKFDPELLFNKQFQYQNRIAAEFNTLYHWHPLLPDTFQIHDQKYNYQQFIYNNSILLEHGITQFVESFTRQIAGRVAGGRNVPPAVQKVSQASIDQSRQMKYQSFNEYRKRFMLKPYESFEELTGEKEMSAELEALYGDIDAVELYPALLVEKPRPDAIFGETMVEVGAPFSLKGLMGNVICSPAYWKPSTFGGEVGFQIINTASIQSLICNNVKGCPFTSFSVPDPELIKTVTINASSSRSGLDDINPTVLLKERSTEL

## CS(=O)(=O)c1ccc(C2=C(c3ccccc3)C(=O)OC2)cc1 [rofecoxib]
cyclooxygenase-2 (COX-2)
  specificity for inhibiting COX-2 (over COX-1): about 350 fold

## COc1ccc2c(c1)[C@@]13CCCC[C@H]1[C@@H](C2)N(C)CC3 [DM, (+)-3-methoxy-N-methylmorphinan]
[1]; 60 mg DM + 150 mg quinidine oral
  PLASMA CONCENTRATION of DM: 34.2 ng/mL and 42.4 ng/mL and 30.2 ng/mL and 26.8 ng/mL and 10.2 ng/mL
[1]; 120 mg DM oral, quinidine 0 mg
  PLASMA CONCENTRATION of DM: 13.5 ng/mL and 15.4 ng/mL and <1 ng/mL (2×) and 5.7 ng/mL

## CCCc1nn(C)c2c(=O)[nH]c(-c3cc(S(=O)(=O)N4CCN(C)CC4)ccc3OCC)nc12 [sildenafil, 1-[[3-(6,7-dihydro-1-methyl-7-oxo-3-propyl-1H-pyrazolo[4,3-d]pyrimidin-5-yl)-4-ethoxyphenyl]sulfonyl]-4-methyl piperazine]
[2]
  potency for PDE5 compared to PDE6: about 10 fold
[3]
  absolute bioavailability: about 40%
